Measured values reported in US12661410B2, “Compounds for targeted degradation of RET” (C4 Therapeutics, Inc., priority 2020, dated 2026).
Where a chain is given by its changes, count along the chain named. Counter-ions that a name gives are not always drawn. Like-named read-outs stand apart in the source and are kept apart here.

Assays:
RET(KD: 658-1114 G810R) = biological target: T1, RET(KD: 658-1114 G810R) (Homo sapiens, UniProt P07949, G810R); assay: HiBiT-Degradation, RET G810R degradation assay (Nano-Glo HiBiT Lytic), 293T.165 cells; assay type: cell-based; conditions: for Emax / DC50: 6.0 hours; for Emax: % remaining protein, read-out: 293T.165 RET(KD: 658-1114 G810R) 6.0 hours (Emax); for DC50: read-out: 293T.165 RET(KD: 658-1114 G810R) 6.0 hours (DC50)
T1 construct: 658-1114; expressed in transfected cells; host or cells: 293T.165 (293T cells, generated in-house)
T1 sequence (P07949 658-1114 G810R): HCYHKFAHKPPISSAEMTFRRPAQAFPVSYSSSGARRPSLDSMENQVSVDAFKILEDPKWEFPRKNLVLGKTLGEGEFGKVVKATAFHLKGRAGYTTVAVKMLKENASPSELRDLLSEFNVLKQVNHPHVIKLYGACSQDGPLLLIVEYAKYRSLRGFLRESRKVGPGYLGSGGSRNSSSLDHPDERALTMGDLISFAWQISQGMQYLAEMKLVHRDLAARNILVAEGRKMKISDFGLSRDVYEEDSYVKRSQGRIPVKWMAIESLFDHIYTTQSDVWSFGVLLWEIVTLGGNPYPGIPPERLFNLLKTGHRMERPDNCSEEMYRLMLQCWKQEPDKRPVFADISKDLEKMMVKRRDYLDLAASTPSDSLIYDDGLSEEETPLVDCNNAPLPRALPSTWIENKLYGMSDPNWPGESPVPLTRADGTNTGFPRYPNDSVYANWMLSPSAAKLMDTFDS
Method in brief: (§1)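 Degradation after 6 h compound exposure (top 10 μM, 11 half-log points, duplicates) measured by Nano-Glo HiBiT lytic luminescence. Cells: 293T.144 carrying wild-type and 293T.165 carrying G810R HiBiT-RET kinase domain; curves yield DC50 and Emax.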

RET (658-1114) = biological target: T2, RET (658-1114) (Homo sapiens, UniProt P07949); assay: HiBiT-Degradation, RET wild-type degradation assay (Nano-Glo HiBiT Lytic), 293T.144 cells; assay type: cell-based; conditions: HiBiT-Degradation; for DC50 / Emax: 6.0 hours; for DC50: read-out: 293T.144 RET (658-1114) 6.0 hours (DC50); for Emax: read-out: 293T.144 RET (658-1114) 6.0 hours (Emax)
T2 construct: 658-1114; expressed in transfected cells; host or cells: 293T.144 (293T cells, generated in-house)
T2 sequence (P07949 658-1114): T1 sequence (P07949 658-1114 G810R) with R153G
Method in brief: as §1

[1] = half-maximal degradation concentration

Emax (RET(KD: 658-1114 G810R)) [%]	DC50 (RET(KD: 658-1114 G810R); [1]) [nM]	293T.165 RET(KD: 658-1114 G810R) 6.0 hours (Emax) (RET(KD: 658-1114 G810R); HiBiT-Degradation)	293T.165 RET(KD: 658-1114 G810R) 6.0 hours (IP) [nM] (RET(KD: 658-1114 G810R); HiBiT-Degradation)	DC50 (RET(KD: 658-1114 G810R); HiBiT-Degradation) [nM]	293T.144 RET (658-1114) 6.0 hours (IP) [nM] (RET (658-1114))	DC50 (RET (658-1114)) [nM]	Emax (RET (658-1114)) [%]	SMILES
< 30	< 50	++++ (< 30% = ++++)	++++ (< 50 nM = ++++)	< 50	++++ (< 50 nM = ++++)	< 50	< 30	N#Cc1cnn2cc(-c3ccc(N4CCN(C(=O)CN5CCC(c6ccc(NC7CCC(=O)NC7=O)cc6)CC5)CC4)cc3)cc(-c3ccc(N4CC5CC5C4)nc3)c12 (stereo not drawn) [Compound 17, 4-[6-(3-azabicyclo[3.1.0]hexan-3-yl)-3-pyridyl]-6-[4-[4-[2-[4-[4-[(2,6-dioxo-3-piperidyl)amino]phenyl]-1-piperidyl]acetyl]piperazin-1-yl]phenyl]pyrazolo[1,5-a]pyridine-3-carbonitrile]
< 30	< 100	++++ (< 30% = ++++)	++++ (< 50 nM = ++++)	< 100	++++ (< 50 nM = ++++)	< 50	< 30	N#Cc1cnn2cc(-c3ccc(N4CCN(C(=O)CN5CCC(c6ccc(NC7CCC(=O)NC7=O)cc6)CC5)CC4)cc3)cc(-c3ccc(N4CCN(CCc5ccccn5)CC4)nc3)c12 (stereo not drawn) [Compound 18, 6-(4-(4-(2-(4-(4-((2,6-Dioxopiperidin-3-yl)amino)phenyl)piperidin-1-yl)acetyl)piperazin-1-yl)phenyl)-4-(6-(4-(2-(pyridin-2-yl)ethyl)piperazin-1-yl)pyridin-3-yl)pyrazolo[1,5-a]pyridine-3-carbonitrile]
< 50	< 100	+++ (<50% = +++)	++++ (< 50 nM = ++++)	< 100	++++ (< 50 nM = ++++)	< 50	< 30	N#Cc1cnn2cc(-c3ccc(N4CCN(C(=O)CN5CCC(c6ccc(NC7CCC(=O)NC7=O)cc6)CC5)CC4)cc3)cc(-c3ccc(N4C[C@H]5CC[C@@H](C4)O5)nc3)c12 (stereo partly drawn) [Compound 19, 4-(6-((1R,5S)-8—Oxa-3-azabicyclo[3.2.1]octan-3-yl)pyridin-3-yl)-6-(4-(4-(2-(4-(4-((2,6-dioxopiperidin-3-yl)amino)phenyl)piperidin-1-yl)acetyl)piperazin-1-yl)phenyl)pyrazolo[1,5-a]pyridine-3-carbonitrile]
< 30	< 100	++++ (< 30% = ++++)	+++ (<100 nM = +++)	< 100	++++ (< 50 nM = ++++)	< 50	< 30	N#Cc1cnn2cc(-c3ccc(N4CCN(C(=O)CN5CCC(c6ccc(NC7CCC(=O)NC7=O)cc6)CC5)CC4)cc3)cc(-c3ccc(N4CCC(Nc5ccccc5)CC4)nc3)c12 (stereo not drawn) [Compound 20, 6-(4-(4-(2-(4-(4-((2,6-Dioxopiperidin-3-yl)amino)phenyl)piperidin-1-yl)acetyl)piperazin-1-yl)phenyl)-4-(6-(4-(phenylamino)piperidin-1-yl)pyridin-3-yl)pyrazolo[1,5-a]pyridine-3-carbonitrile]

Further lines, the compound ahead of its results:

SMILES	Emax (RET(KD: 658-1114 G810R)) [%]	DC50 (RET(KD: 658-1114 G810R); [1]) [nM]	293T.165 RET(KD: 658-1114 G810R) 6.0 hours (Emax) (RET(KD: 658-1114 G810R); HiBiT-Degradation)	293T.165 RET(KD: 658-1114 G810R) 6.0 hours (IP) [nM] (RET(KD: 658-1114 G810R); HiBiT-Degradation)	DC50 (RET(KD: 658-1114 G810R); HiBiT-Degradation) [nM]	293T.144 RET (658-1114) 6.0 hours (IP) [nM] (RET (658-1114))	DC50 (RET (658-1114)) [nM]	Emax (RET (658-1114)) [%]
Cn1nc(N2CCC(=O)NC2=O)c2ccc(C3CCN(CC(=O)N4CCC(n5cc(-c6cc(-c7ccc(N8CCN(Cc9ccccn9)CC8)nc7)c7c(C#N)cnn7c6)cn5)CC4)CC3)cc21 [Compound 13, 6-(1-(1-(2-(4-(3-(2,4-dioxotetrahydropyrimidin-1(2H)-yl)-1-methyl-1H-indazol-6-yl)piperidin-1-yl)acetyl)piperidin-4-yl)-1H-pyrazol-4-yl)-4-(6-(4-(pyridin-2-ylmethyl)piperazin-1-yl)pyridin-3-yl)pyrazolo[1,5-a]pyridine-3-carbonitrile]	< 50	< 100	+++ (<50% = +++)	++++ (< 50 nM = ++++)	< 100	++++ (< 50 nM = ++++)	< 50	< 30
CCC1(C(=O)NC(C)C)CCN(c2ccc(-c3nc(-c4cnn(C5CCN(C(=O)CC6(O)CCN(c7ccc(NC8CCC(=O)NC8=O)cc7Cl)CC6)CC5)c4)cn4ncc(C#N)c34)cn2)CC1 (stereo not drawn) [Compound 14, 1-(5-(6-(1-(1-(2-(1-(2-Chloro-4-((2,6-dioxopiperidin-3-yl)amino)phenyl)-4-hydroxypiperidin-4-yl)acetyl)piperidin-4-yl)-1H-pyrazol-4-yl)-3-cyanopyrazolo[1,5-a]pyrazin-4-yl)pyridin-2-yl)-4-ethyl-N-isopropylpiperidine-4-carboxamide]	< 30	< 50	++++ (< 30% = ++++)	++++ (< 50 nM = ++++)	< 50	++++ (< 50 nM = ++++)	< 50	< 30
N#Cc1cnn2cc(-c3cnn(C4CCN(C(=O)CN5CCC(c6ccc(NC7CCC(=O)NC7=O)cc6)CC5)CC4)c3)cc(-c3ccc(N4CCN(C(=O)Cc5ccc(F)cn5)CC4)nc3)c12 (stereo not drawn) [Compound 15, 6-[1-[1-[2-[4-[4-[(2,6-dioxo-3-piperidyl)amino]phenyl]-1-piperidyl]acetyl]-4-piperidyl]pyrazol-4-yl]-4-[6-[4-[2-(5-fluoro-2-pyridyl)acetyl]piperazin-1-yl]-3-pyridyl]pyrazolo[1,5-a]pyridine-3-carbonitrile formic acid salt]	< 30	< 100	++++ (< 30% = ++++)	++++ (< 50 nM = ++++)	< 100	++++ (< 50 nM = ++++)	< 50	< 30
N#Cc1cnn2cc(-c3ccc(N4CCN(C(=O)CN5CCC(c6ccc(NC7CCC(=O)NC7=O)cc6F)CC5)CC4)cc3)cc(-c3ccc(N4CCN(C(=O)Cc5ccc(F)cn5)CC4)nc3)c12 (stereo not drawn) [Compound 16, 6-[4-[4-[2-[4-[4-[(2,6-dioxo-3-piperidyl)amino]-2-fluoro-phenyl]-1-piperidyl]acetyl]piperazin-1-yl]phenyl]-4-[6-[4-[2-(5-fluoro-2-pyridyl)acetyl]piperazin-1-yl]-3-pyridyl]pyrazolo[1,5-a]pyridine-3-carbonitrile]	< 30	< 100	++++ (< 30% = ++++)	++++ (< 50 nM = ++++)	< 100	++++ (< 50 nM = ++++)	< 50	< 30
N#Cc1cnn2cc(-c3ccc(N4CCN(C(=O)CN5CCC(c6ccc(NC7CCC(=O)NC7=O)cc6)CC5)CC4)cc3)cc(-c3ccc(N4CC5CC(C4)N5Cc4ccccc4)nc3)c12 (stereo not drawn) [Compound 22, 4-(6-(6-Benzyl-3,6-diazabicyclo[3.1.1]heptan-3-yl)pyridin-3-yl)-6-(4-(4-(2-(4-(4-((2,6-dioxopiperidin-3-yl)amino)phenyl)piperidin-1-yl)acetyl)piperazin-1-yl)phenyl)pyrazolo[1,5-a]pyridine-3-carbonitrile]	< 30	< 100	++++ (< 30% = ++++)	++++ (< 50 nM = ++++)	< 100	++++ (< 50 nM = ++++)	< 50	< 30
